Measurements published in patent US7429571B2, “Therapeutic furopyrimidines and thienopyrimidines” (BioCryst Pharmaceuticals, Inc., priority 2004, dated 2008).

Tested on: not given
Details: not given

| Structure (SMILES) | melting point [°C] |
| --- | --- |
| OC[C@H]1O[C@@H](c2coc3c(N4CCCC4)ncnc23)[C@H](O)[C@@H]1O | 198 |
| CCNc1ncnc2c([C@@H]3O[C@H](CO)[C@@H](O)[C@H]3O)coc12 | 76 to 88 |
| CC(C)Nc1ncnc2c([C@@H]3O[C@H](CO)[C@@H](O)[C@H]3O)coc12 | 58 to 80 |
| CCCNc1ncnc2c([C@@H]3O[C@H](CO)[C@@H](O)[C@H]3O)coc12 | 58 to 80 |
| OC[C@H]1O[C@@H](c2coc3c(NC4CC4)ncnc23)[C@H](O)[C@@H]1O | 88 to 100 |
| OC[C@H]1O[C@@H](c2coc3c(N4CCC4)ncnc23)[C@H](O)[C@@H]1O | 192 |
| COC(=O)C(NP(=O)(OC[C@H]1O[C@@H](c2coc3c(N)ncnc23)[C@](C)(O)[C@@H]1O)Oc1ccccc1)C(C)C (stereo in doubt) | 58 to 62 |

Results, then the compound that gave them:

| melting point [°C] | Structure (SMILES) |
| --- | --- |
| 84 to 92 | C[C@@]1(O)[C@H](O)[C@@H](CO)O[C@H]1c1coc2c(N(N)CCO)ncnc12 |
| 70 to 84 | CN(N)c1ncnc2c([C@@H]3O[C@H](CO)[C@@H](O)[C@@]3(C)O)coc12 |
| 80 to 84 | C[C@@]1(O)[C@H](O)[C@@H](CO)O[C@H]1c1coc2c(=O)[nH]c(N)nc12 |
| 88 to 100 | CNc1ncnc2c([C@@H]3O[C@H](CO)[C@@H](O)[C@H]3O)coc12 |
| 210 | CN(C)c1ncnc2c([C@@H]3O[C@H](CO)[C@@H](O)[C@H]3O)coc12 |

Tested on: HCV
Details: patients, sole treatment; cited from earlier work

| Structure (SMILES) | effect on serum levels of HCV-RNA |
| --- | --- |
| NC(=O)c1ncn([C@@H]2O[C@H](CO)[C@@H](O)[C@H]2O)n1 [Ribavirin, 1-β-D-ribofuranosyl-1-1,2,4-triazole-3-carboxamide] | does not lower serum levels of HCV-RNA |

Same assay, conditions: ribavirin alone; cited from earlier work

| Structure (SMILES) | patients in whom serum amino transferase levels are reduced to normal [%] |
| --- | --- |
| NC(=O)c1ncn([C@@H]2O[C@H](CO)[C@@H](O)[C@H]2O)n1 [Ribavirin, 1-β-D-ribofuranosyl-1-1,2,4-triazole-3-carboxamide] | 40 |
